Test results taken from ChEMBL document CHEMBL5260817, “Polyamine-based analogs and conjugates as antikinetoplastid agents” (Eur J Med Chem, 2017).
Blank lines part the entries; values can stand above or below the compound they belong to.

Experiments:
[1] = system: Trypanosoma brucei; assay: Antiprotozoal activity against Trypanosoma brucei; type: functional, organism-based
[2] = system: Trypanosoma cruzi; assay: Antiprotozoal activity against Trypanosoma cruzi; type: functional, organism-based
[3] = system: Leishmania amazonensis; assay: Antiprotozoal activity against Leishmania amazonensis promastigotes measured after 48 hrs by MTT assay; type: functional, organism-based
[4] = system: Leishmania chagasi; assay: Antiprotozoal activity against Leishmania chagasi measured after 3 days by MTT assay; type: functional, organism-based; conditions: 72 h
[5] = system: Leishmania amazonensis; assay: Antiprotozoal activity against Leishmania amazonensis measured after 3 days by MTT assay; type: functional, organism-based; conditions: 72 h
[6] = Inhibition of TryR (unknown origin) assessed as inhibition constant; parameters: species or system Bacteria
[7] = target: T1, Trypanothione reductase (Trypanosoma cruzi, UniProt P28593); assay: Inhibition of Trypanosoma cruzi TryR assessed as inhibition constant in presence of NADPH
[8] = target: T1, Trypanothione reductase; assay: Inhibition of Trypanosoma cruzi TryR
[9] = Inhibition of Trypanosoma brucei MetRS
[10] = target: T1, Trypanothione reductase; assay: Inhibition of Trypanosoma cruzi TryR assessed as inhibition constant
[11] = system: Trypanosoma brucei; assay: Trypanocidal activity against Trypanosoma brucei Lab 110 strain; type: functional, organism-based
[12] = system: Trypanosoma brucei; assay: Trypanocidal activity against Trypanosoma brucei K 243-As-10-3 strain; type: functional, organism-based
[13] = system: Trypanosoma brucei; assay: Trypanocidal activity against Trypanosoma brucei K 269 strain; type: functional, organism-based
[14] = system: Trypanosoma brucei; assay: Trypanocidal activity against Trypanosoma brucei K 243 strain; type: functional, organism-based
[15] = target: Trypanothione reductase (Trypanosoma brucei brucei, UniProt P39051); assay: Inhibition of Trypanosoma brucei TryR assessed as inhibition constant
[16] = system: Bacteria; assay: Inhibition of TryR (unknown origin) at 10 uM relative to control
[17] = target: Glutathione reductase, mitochondrial (Homo sapiens, UniProt P00390); assay: Inhibition of human glutathione reductase
[18] = system: Trypanosoma; assay: Inhibition of Trypanosomal TryS at 10 uM relative to control
[19] = system: Leishmania donovani; assay: Antiprotozoal activity against Leishmania donovani MHOM/SD/00/1S-2D strain promastigotes assessed as parasitic death at 10 uM relative to control; type: functional
[20] = system: Leishmania donovani; assay: Antiprotozoal activity against Leishmania donovani MHOM/SD/00/1S-2D strain promastigotes assessed as parasitic death; type: functional, organism-based
[21] = system: Leishmania donovani; assay: Antiprotozoal activity against Leishmania donovani promastigotes; type: functional, organism-based
[22] = system: Leishmania braziliensis; assay: Antiprotozoal activity against Leishmania braziliensis 2903 strain […] assessed as […] at 10 ug/ml relative to control; type: functional; conditions: dose 10 µg/ml
[23] = system: Leishmania donovani; assay: Antiprotozoal activity against Leishmania donovani PP75 strain […] assessed as […] at 10 ug/ml relative to control; type: functional; conditions: dose 10 µg/ml
[24] = system: Leishmania amazonensis; assay: Antiprotozoal activity against Leishmania amazonensis PH8 strain […] assessed as […] at 10 ug/ml relative to control; type: functional; conditions: dose 10 µg/ml
[25] = system: Trypanosoma brucei brucei; assay: Antiprotozoal activity against Trypanosoma brucei brucei; type: functional, organism-based
[26] = species: Homo sapiens; assay: Inhibition of Superoxide dismutase (unknown origin) at 100 uM measured after 24 hrs relative to control
[27] = system: Trypanosoma brucei rhodesiense; assay: Antiprotozoal activity against Trypanosoma brucei rhodesiense; type: functional, organism-based
[28] = system: Trypanosoma cruzi; assay: Antiprotozoal activity against Trypanosoma cruzi epimastigotes; type: functional, organism-based
[29] = system: Bacteria; assay: Inhibition of TryS (unknown origin) at 10 uM relative to control
[30] = system: Leishmania braziliensis; assay: Antiprotozoal activity against Leishmania braziliensis MHOM/PE/84/LC26 amastigotes infected in mouse J774.2 cells measured after 72 hrs; type: functional, organism-based; conditions: J774.2, 72 h
[31] = system: Leishmania donovani; assay: Antiprotozoal activity against Leishmania donovani promastigote at 10 uM relative to control; type: functional

T1 sequence (P28593 whole entry): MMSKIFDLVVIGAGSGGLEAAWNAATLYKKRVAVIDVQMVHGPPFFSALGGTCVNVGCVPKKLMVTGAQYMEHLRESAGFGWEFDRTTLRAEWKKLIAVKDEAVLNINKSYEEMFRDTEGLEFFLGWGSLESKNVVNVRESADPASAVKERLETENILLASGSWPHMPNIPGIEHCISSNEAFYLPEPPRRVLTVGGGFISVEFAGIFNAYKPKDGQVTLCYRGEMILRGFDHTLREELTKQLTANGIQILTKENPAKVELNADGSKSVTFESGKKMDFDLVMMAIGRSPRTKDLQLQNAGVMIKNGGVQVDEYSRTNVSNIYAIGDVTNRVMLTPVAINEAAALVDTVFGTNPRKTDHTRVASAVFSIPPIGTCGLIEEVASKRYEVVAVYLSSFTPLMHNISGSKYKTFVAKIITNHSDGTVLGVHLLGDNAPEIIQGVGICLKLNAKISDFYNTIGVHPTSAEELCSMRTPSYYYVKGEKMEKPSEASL
Glutathione reductase, mitochondrial, sequence (P00390 whole entry): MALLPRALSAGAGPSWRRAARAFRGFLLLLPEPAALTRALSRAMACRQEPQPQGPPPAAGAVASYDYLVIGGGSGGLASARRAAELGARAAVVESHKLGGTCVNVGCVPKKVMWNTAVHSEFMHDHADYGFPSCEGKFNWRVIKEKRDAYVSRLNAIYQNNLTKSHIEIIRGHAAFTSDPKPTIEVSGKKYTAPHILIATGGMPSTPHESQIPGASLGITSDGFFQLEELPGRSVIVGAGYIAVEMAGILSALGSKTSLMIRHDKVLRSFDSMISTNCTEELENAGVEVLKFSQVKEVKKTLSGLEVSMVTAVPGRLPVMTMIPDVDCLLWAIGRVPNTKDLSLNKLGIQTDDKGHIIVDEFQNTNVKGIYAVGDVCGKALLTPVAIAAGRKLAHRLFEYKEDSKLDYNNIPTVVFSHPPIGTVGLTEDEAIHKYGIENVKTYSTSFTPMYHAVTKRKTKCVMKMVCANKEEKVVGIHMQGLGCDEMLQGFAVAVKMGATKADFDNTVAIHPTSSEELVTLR
Trypanothione reductase (Trypanosoma brucei brucei, UniProt P39051), sequence (P39051 whole entry): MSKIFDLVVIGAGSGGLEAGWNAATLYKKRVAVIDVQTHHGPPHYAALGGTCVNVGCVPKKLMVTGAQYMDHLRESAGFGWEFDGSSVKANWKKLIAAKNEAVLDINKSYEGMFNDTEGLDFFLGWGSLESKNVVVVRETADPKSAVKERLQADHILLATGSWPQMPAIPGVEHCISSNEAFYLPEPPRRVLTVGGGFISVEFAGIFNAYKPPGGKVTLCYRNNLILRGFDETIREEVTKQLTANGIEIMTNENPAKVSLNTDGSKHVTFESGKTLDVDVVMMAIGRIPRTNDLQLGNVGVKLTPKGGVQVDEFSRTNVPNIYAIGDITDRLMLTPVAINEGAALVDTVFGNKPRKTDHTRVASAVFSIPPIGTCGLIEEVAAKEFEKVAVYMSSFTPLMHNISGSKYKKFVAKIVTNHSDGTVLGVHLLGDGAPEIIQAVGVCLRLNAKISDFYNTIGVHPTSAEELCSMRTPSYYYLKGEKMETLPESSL

SMILES: CCN(CCCCN1CN(C(CC(C)C)C(=O)O)CSC1=S)CCCN1CN(C(CC(C)C)C(=O)O)CSC1=S (configuration not stated)
IC50 [2]: 3.64 µM

SMILES: CC(C)=CCC/C(C)=C/CC/C(C)=C/CNCCCCN
IC50 [3]: 15 µM

SMILES: CCCCCCCCCCCCNCCCCN
IC50 [4]: 0.53 µM
IC50 [5]: 5.13 µM

SMILES: CC(=O)N(CCCN)CCCCN
Ki [7]: > 2000 µM

SMILES: Clc1cc(Cl)c2c(c1)[C@H](NCCCNc1nc3ncccc3[nH]1)CCN2
IC50 [1]: 0.0004 µM
IC50 [9]: 0.002 µM

SMILES: NCCCCN(CCCN)Cc1ccccc1
Ki [10]: > 100 µM

SMILES: NCCCCN(CCCN)C(=O)OCc1ccccc1
Ki [10]: > 100 µM

SMILES: c1ccc(CCCNCCCNCCCCNCCCNCCCc2ccccc2)cc1
IC50 [11]: 1 µM
IC50 [12]: 1 µM
IC50 [13]: 1 µM
IC50 [14]: 1 µM
Ki [15]: 12 µM

SMILES: CCCCN(CCCC)CCCNC(=O)CCCCC1=C(C)C(=O)c2cccc(O)c2C1=O
IC50 [17]: > 40 µM

SMILES: COc1ccc2nc3cc(Cl)ccc3c(NCCCCN(CCCNc3c4ccc(Cl)cc4nc4ccc(OC)cc34)C(=O)[C@H](C)N)c2c1
inhibition at 10 µM [19]: 90%
IC50 [20]: 1 µM

SMILES: CCCCCCCCCCCCCCC(CN(CC)CC)NC(=O)OC(C)(C)C (configuration not stated)
Activity [22]: 80%
Activity [23]: 80%
Activity [24]: 80%

SMILES: Fc1ccc2[nH]c(NCCCNCc3cc(Cl)cc(Cl)c3)nc2n1
IC50 [1]: 0.004 µM
IC50 [9]: 0.001 µM

SMILES: O=C(NCCCCNCCCNC(=O)C(F)(F)F)C(F)(F)F
Ki [7]: > 2000 µM

SMILES: CC(C)(C)OC(=O)N(CCCN)CCCCN
Ki [7]: > 2000 µM

SMILES: N=C(NCCCNCCCCCCCNCCCNC(=N)NC1CCCCCC1)NC1CCCCCC1
IC50 [25]: > 15 µM

SMILES: CCCCCCCCCCNCCCCCCN
IC50 [28]: 14.3 µM

SMILES: CC(=O)NCCCCNCCCNC(C)=O
Ki [7]: > 2000 µM

SMILES: NCCCCN(CCCN)Cc1ccc2ccccc2c1
Ki [10]: > 100 µM

SMILES: CC(C)=CCC/C(C)=C/CC/C(C)=C/CN1CCNCC1
IC50 [3]: 13 µM

SMILES: CC(C)=CCC/C(C)=C/CC/C(C)=C/CNCCCN
IC50 [3]: 4.9 µM

SMILES: COc1ccc2nc3cc(Cl)ccc3c(NCCCCCCCCNc3c4ccc(Cl)cc4nc4ccc(OC)nc34)c2c1
inhibition at 10 µM [31]: 42%

Continued, values first:

IC50 [1]: 1 µM
SMILES: c1ccc(-c2cccc(CNCCCNCCCCCCCNCCCNCc3cccc(-c4ccccc4)c3)c2)cc1

Ki [6]: 3.5 µM
SMILES: CN1CCN(CCCNC(=O)/C=C/c2ccc3occ(/C=C/C(=O)NCCCN4CCN(C)CC4)c3c2)CC1

IC50 [8]: 0.6 µM
SMILES: CCCCN(CCCC)CCCNC(=O)CCCC1=C(CCCC(=O)NCCCN(CCCC)CCCC)C(=O)c2c(O)cccc2C1=O

Ki [10]: 15.9 µM
SMILES: CCCNCCCNC(=O)CNC(=O)[C@H](CC(Br)C(Br)C[C@H](NC(=O)OCc1ccccc1)C(=O)NCC(=O)NCCCNCCC)NC(=O)OCc1ccccc1 (some centres not stated)

inhibition [16]: 95%
SMILES: O=C(Cc1c[nH]c2ccccc12)NCCCCNCCCNC(=O)Cc1c[nH]c2ccccc12

inhibition [18]: 80%
SMILES: NCCNC(=O)CN1C(=O)Cc2c([nH]c3ccc(Br)cc23)-c2ccccc21

IC50 [21]: < 1 µM
SMILES: NCCCCN(Cc1ccccc1)Cc1ccc(OCc2ccccc2)cc1

IC50 [17]: > 40 µM
SMILES: CCCCN(CCCC)CCCNC(=O)CCCCC1=C(C)C(=O)c2ccccc2C1=O

IC50 [8]: 0.2 µM
SMILES: CCCCCCCCCCCCCC(=O)NCCCC(=O)N(CC(=O)Nc1cccc(Sc2ccc(Br)cc2NC(=O)CCN2CCN(C)CC2)c1)C(=O)Nc1ccccc1Sc1ccc(Br)cc1NC(=O)CCN1CCN(C)CC1

IC50 [25]: 0.18 µM
SMILES: COc1ccc2c(C(=O)C(=O)NCCCNCCCCCCCCCCCCNCCCNC(=O)C(=O)c3c[nH]c4cc(OC)ccc34)c[nH]c2c1

inhibition [26]: 80%
SMILES: O=C(NCCCCCCNC(=O)c1cccc(O)c1O)c1cccc(O)c1O

IC50 [27]: 1.56 µM
SMILES: CN1CCN(CCC(=N)Nc2cc(Cl)ccc2Sc2ccccc2)CC1

inhibition [29]: 22%
SMILES: NCCCCNCCCNC(=O)CN1C(=O)Cc2c([nH]c3ccc(Br)cc23)-c2ccccc21

Ki [15]: > 100 µM
SMILES: O=C(Cc1ccccc1)NCCCNCCCCNCCCNC(=O)Cc1ccccc1

IC50 [30]: 0.55 µM
SMILES: CN1CCN(CCC(=O)Nc2cc(Br)ccc2Sc2cccc(NC(=O)CCCC(=O)Nc3cccc(Sc4ccc(Br)cc4NC(=O)CCN4CCN(C)CC4)c3)c2)CC1

IC50 [21]: < 1 µM
SMILES: NCCCN(Cc1ccc(OCc2ccc(Br)cc2)cc1)Cc1ccc(OCc2ccc(Br)cc2)cc1
